These results are taken from US12319652B2, “Salts and solid forms of (R)-1-(5-methoxy-1H-indol-1-yl)-N,N-dimethylpropan-2-amine” (priority 2021, dated 2025).

The nature of the series: Thermocycling of compound 1 Fumarate. The conditions noted are these: computed by software from the powder pattern. The procedure: Thermocycling in different solvents can promote the formation of alternative polymorphic forms. compound 1·Fumarate was heated and cooled between 20° C. and 75% of the relevant solvent b.p. at 0.5° C./minute, for 5 consecutive cycles; a 10-minute dwell was incorporated at each inflection (refer to Table 63). Thermocycling is ripening technique that encourages particle size enlargement and promotes the evolution of the API into a stable phase. […] The products were analysed both wet and dry to determine if form changes had occurred, all products were consistent with monofumarate Form A (refer to FIGS. 16-19 and FIGS. 88-102).
Compound 1 Fumarate (75 mg, 1 wt) was weighed out in to 4 separate vials and the corresponding solvents (750 ul, 10 vol) from Table were charged.
The suspensions underwent constant amplitude thermocycling at ±0.5° C./min up to 75% of the relevant solvent b.p. and −0.5° C./min down to 20° C. The thermocycle was repeated 5 times (FIGS. 16-19 and 88-102).

Setting [1] is: thermocycling in MEK/Heptane (1 to 1).
Where [2] appears, read: thermocycling in Toluene 100.0%.

Regarding `COc1ccc2c(ccn2C[C@@H](C)[NH+](C)C)c1.O=C(O)/C=C/C(=O)O` [Compound 1 fumarate, (R)-1-(5-methoxy-1H-indol-1-yl)-N,N-dimethylpropan-2-amine fumarate], the “XRPD crystallinity (dry, %)” value came to 83.2% under setting [1], 68.1% under setting [2], 82.7% (thermocycling in iPAC 100.0%) and 81.0% (thermocycling in tBME 100.0%). Also, the “XRPD crystallinity (wet, %)” value was 83.4% under setting [1], 52.4% under setting [2], 80.7% (thermocycling in iPAC 100.0%) and 79.0% (thermocycling in tBME 100.0%).
